Assay results from patent US8846947B2, “Benzimidazoles and related analogs as sirtuin modulators” (GlaxoSmithKline LLC, priority 2008, dated 2014).
Read-outs that look alike come from different tables or passages of the source.

Target: T1, SIRT1 (Homo sapiens, UniProt Q96EB6)
T1 sequence (Q96EB6 1-747): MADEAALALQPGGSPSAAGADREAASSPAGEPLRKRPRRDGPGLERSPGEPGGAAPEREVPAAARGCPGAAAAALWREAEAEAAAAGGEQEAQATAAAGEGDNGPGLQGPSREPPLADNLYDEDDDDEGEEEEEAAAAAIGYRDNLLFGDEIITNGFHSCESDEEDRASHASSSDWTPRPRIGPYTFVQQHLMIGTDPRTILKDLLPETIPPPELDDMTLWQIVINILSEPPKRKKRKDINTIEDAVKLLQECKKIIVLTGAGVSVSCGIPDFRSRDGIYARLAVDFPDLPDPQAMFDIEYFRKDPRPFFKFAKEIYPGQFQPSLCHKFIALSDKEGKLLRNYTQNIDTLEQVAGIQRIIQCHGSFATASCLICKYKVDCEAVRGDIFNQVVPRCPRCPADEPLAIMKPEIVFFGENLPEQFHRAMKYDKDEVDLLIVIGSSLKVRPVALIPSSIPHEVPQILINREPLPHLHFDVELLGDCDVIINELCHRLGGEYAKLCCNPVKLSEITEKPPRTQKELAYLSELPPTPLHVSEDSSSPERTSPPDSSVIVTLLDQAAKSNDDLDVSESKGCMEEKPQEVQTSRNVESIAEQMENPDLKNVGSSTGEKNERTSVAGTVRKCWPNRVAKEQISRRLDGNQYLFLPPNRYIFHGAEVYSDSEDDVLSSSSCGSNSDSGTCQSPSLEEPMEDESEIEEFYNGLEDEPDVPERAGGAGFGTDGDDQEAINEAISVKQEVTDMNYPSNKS
Experiment: Mass spectrometry based SIRT1 deacetylase activation assay (acetylated p53-derived peptide substrate)
Assay type: biochemical

[1] = 0.5 μM peptide substrate, 120 μM βNAD+, 10 nM SIRT1, 25 minutes at 25° C.
[2] = 0.5 μM peptide substrate, 120 μM βNAD+, 10 nM SIRT1, 25 min at 25° C.
[3] = 0.5 μM peptide substrate, 120 μM βNAD+, 10 nM SIRT1, 25 min at 25° C., read-out: EC1.5

EC1.5 [1] | Fold Act. (percent maximum fold activation) [1] | Fold Act. (percent maximum fold activation) [2] | EC1.5 [3] [nM] | Compound | other results
A (EC1.5<1.0 uM) | A (Fold activation >200%) | – | – | Cc1cnc(NC(=O)c2cncc3[nH]c(-c4ccc(N5CCCC5)cc4C(F)F)nc23)s1 [Compound 800] | –
– | – | – | – | O=C(Nc1nccs1)c1cccc2[nH]c(-c3cccc(CN4CCCC4)c3)nc12 [Compound 351] | EC1.5: B (EC1.5 1-25 uM); Fold Act. (percent maximum fold activation): A (Fold activation >200%)
– | – | – | – | O=C(Nc1ncc(F)s1)c1cccc2[nH]c(-c3ccc(Cl)cc3C(F)(F)F)nc12 [Compound 321] | EC1.5: A (EC1.5<1.0 uM); Fold Act. (percent maximum fold activation): A (Fold activation >200%)
A (EC1.5<1.0 uM) | A (Fold activation >200%) | – | – | O=C(Nc1cccc(OCC(O)CO)c1)c1cccc2[nH]c(-c3cccnc3)nc12 (stereo not drawn) [Compound 794] | –
– | – | A (Fold activation >200%) | < 1000 | O=C(Nc1cccnc1)c1cccc2[nH]c(-c3ccc(N4CC[C@H](F)C4)cc3C(F)(F)F)nc12 [Compound 574] | –
– | – | A (Fold activation >200%) | < 1000 | O=C(Nc1cccnn1)c1cccc2[nH]c(-c3ccc(N4CCOCC4)cc3C(F)(F)F)nc12 [Compound 550] | –
– | – | A (Fold activation >200%) | 1000 to 25000 | CS(=O)(=O)c1cc(Cl)ccc1-c1nc2c(C(=O)Nc3cccnc3)cccc2[nH]1 [Compound 521] | –
A (EC1.5<1.0 uM) | A (Fold activation >200%) | – | – | O=C(Nc1ccccn1)c1cc(N2CCCC2)cc2[nH]c(-c3ccccc3C(F)F)nc12 [Compound 791] | –
– | – | A (Fold activation >200%) | < 1000 | CS(=O)(=O)c1ccccc1-c1nc2c(C(=O)Nc3ccccn3)cccc2[nH]1 [Compound 519] | –
– | – | – | – | O=C(Nc1nccs1)c1cccc2[nH]c(-c3cccnc3N3CCOCC3)nc12 [Compound 250, 2-(2-morpholinopyridin-3-yl)-N-(thiazol-2-yl)-1H-benzo[d]imidazole-4-carboxamide] | EC1.5: B (EC1.5 1-25 uM); Fold Act. (percent maximum fold activation): A (Fold activation >200%)
A (EC1.5<1.0 uM) | A (Fold activation >200%) | – | – | O=C(Nc1cccc(OC[C@H](O)CO)c1)c1cncc2[nH]c(-c3ccccc3C(F)F)nc12 [Compound 713] | –
– | – | B (Fold Activation <200%) | > 25000 | FC(F)(F)c1cccc(-c2nc3c(Nc4ccccn4)cccc3[nH]2)c1 [Compound 581, N-(pyridin-2-yl)-2-(3-(trifluoromethyl)phenyl)-1H-benzo[d]imidazol-4-amine] | –
A (EC1.5<1.0 uM) | A (Fold activation >200%) | – | – | O=C(Nc1ccccn1)c1cncc2[nH]c(-c3ccc(N4CCCC4)cc3C(F)F)nc12 [Compound 801] | –
A (EC1.5<1.0 uM) | A (Fold activation >200%) | – | – | O=C(Nc1ccc(CN2CCOCC2)nc1)c1cccc2[nH]c(-c3cc(F)ccc3C(F)(F)F)nc12 [Compound 686, 2-(5-fluoro-2-(trifluoromethyl)phenyl)-N-(6-(morpholinomethyl)pyridin-3-yl)-1H-benzo[d]imidazole-4-carboxamide] | –
– | – | – | – | O=C(Nc1nccs1)c1cccc2[nH]c(-c3cc(C(F)(F)F)ccc3F)nc12 [Compound 218] | EC1.5: B (EC1.5 1-25 uM); Fold Act. (percent maximum fold activation): A (Fold activation >200%)
– | – | A (Fold activation >200%) | < 1000 | Cc1cnc(NC(=O)c2cccc3[nH]c(-c4ccc5c(c4)CC(C)(C)O5)nc23)s1 [Compound 500] | –
A (EC1.5<1.0 uM) | A (Fold activation >200%) | – | – | O=C(Nc1nc(CN2CCOCC2)cs1)c1cccc2[nH]c(-c3ccc(F)cc3C(F)(F)F)nc12 [Compound 681, 2-(4-fluoro-2-(trifluoromethyl)phenyl)-N-(4-(morpholinomethyl)thiazol-2-yl)-1H-benzo[d]imidazole-4-carboxamide] | –
– | – | A (Fold activation >200%) | < 1000 | O=C(Nc1ccc(CN2CCCC2)cn1)c1cccc2[nH]c(-c3ccccc3C(F)(F)F)nc12 [Compound 541] | –
– | – | – | – | Cc1cc(C)nc(NC(=O)c2cccc3[nH]c(-c4ccc(Cl)cc4C(F)(F)F)nc23)c1 [Compound 394] | EC1.5: A (EC1.5<1.0 uM); Fold Act. (percent maximum fold activation): A (Fold activation >200%)
A (EC1.5<1.0 uM) | A (Fold activation >200%) | – | – | Cc1cnc(NC(=O)c2cc(N3CCCC3)cc3[nH]c(-c4ccccc4C(F)F)nc23)s1 [Compound 790] | –
– | – | – | – | O=C(Nc1nccs1)c1cccc2[nH]c(-c3c(F)cccc3Cl)nc12 [Compound 266] | EC1.5: B (EC1.5 1-25 uM); Fold Act. (percent maximum fold activation): A (Fold activation >200%)
– | – | A (Fold activation >200%) | < 1000 | O=C(Nc1nccs1)c1cccc2[nH]c(-c3ccc(OC[C@H](O)CO)cc3C(F)F)nc12 [Compound 556, (R)-2-(2-(difluoromethyl)-4-(2,3-dihydroxypropoxy)phenyl)-N-(thiazol-2-yl)-1H-benzo[d]imidazole-4-carboxamide] | –
A (EC1.5<1.0 uM) | A (Fold activation >200%) | – | – | O=C(Nc1ccc(CN2CCCC2)nc1)c1cccc2[nH]c(-c3cc(F)ccc3C(F)(F)F)nc12 [Compound 687] | –
– | – | – | – | O=C(Nc1nccs1)c1cccc2[nH]c(-c3c(F)cccc3F)nc12 [Compound 265] | EC1.5: B (EC1.5 1-25 uM); Fold Act. (percent maximum fold activation): A (Fold activation >200%)
A (EC1.5<1.0 uM) | A (Fold activation >200%) | – | – | O=C(Nc1ccc(CN2CCCC2)cc1)c1cccc2[nH]c(-c3cc(CN4CCCC4)ccc3C(F)(F)F)nc12 [Compound 873, 2-(5-(pyrrolidin-1-ylmethyl)-2-(trifluoromethyl)phenyl)-N-(4-(pyrrolidin-1-ylmethyl)phenyl)-1H-benzo[d]imidazole-4-carboxamide] | –
– | – | A (Fold activation >200%) | < 1000 | CS(=O)(=O)c1cccc(-c2nc3c(C(=O)Nc4cccnc4)cccc3[nH]2)c1 [Compound 404] | –
– | – | A (Fold activation >200%) | 1000 to 25000 | O=C(Nc1nccs1)c1cccc2[nH]c(-c3ccccc3OCCN3CCCC3)nc12 [Compound 482, 2-(2-(2-(pyrrolidin-1-yl)ethoxy)phenyl)-N-(thiazol-2-yl)-1H-benzo[d]imidazole-4-carboxamide] | –
B (EC1.5 1-25 uM) | B (Fold Activation <200%) | – | – | O=C(Nc1nccs1)c1cncc2[nH]c(-c3ccc(F)cc3C(F)(F)F)nc12 [Compound 693, 2-(4-fluoro-2-trifluoromethyl-phenyl)-3H-imidazo[4,5-c]pyridine-7-carboxylic acid thiazol-2-ylamide] | –
A (EC1.5<1.0 uM) | A (Fold activation >200%) | – | – | O=C(Nc1cccc(OC[C@H](O)CO)c1)c1cccc2[nH]c(-c3ccccc3C(F)F)nc12 [Compound 721] | –
– | – | B (Fold Activation <200%) | 1000 to 25000 | O=C(Nc1ccccn1)c1cccc2[nH]c(-c3cc(F)cc(F)c3OCCN3CCOCC3)nc12 [Compound 586] | –
